Measurements from ChEMBL document CHEMBL1201862, “PubChem BioAssay data set” (2004).
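Growth conditions: 96-well plates. Treatment: test compound, 48 hours, 5 concentrations. Analysis: linear interpolation between bracketing concentrations; unreached endpoints set to highest concentration. The concentration for 50% growth inhibition is given as GI50.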 Calls of active or inactive are those of the source. Cut-off read from the data, not from the text of the source: active = GI50 up to about 1.1 µM and inactive = higher.

Tests used:
Assay in all cases: inhibition of tumour cell growth, NCI panel, 48 h
DLD-1 = system: DLD-1
NCI-H522 = system: NCI-H522
786-0 = system: 786-0
IGROV-1 = system: IGROV-1
OVCAR-5 = system: OVCAR-5
SNB-75 = system: SNB-75
OVCAR-3 = system: OVCAR-3
SN12C = system: SN12C
DU-145 = system: DU-145
UO-31 = system: UO-31
A549 = system: A549
SNB-19 = system: SNB-19
MOLT-4 = system: MOLT-4
M14 = system: M14
ACHN = system: ACHN
BT-549 = system: BT-549
UACC-62 = system: UACC-62
DMS-114 = system: DMS-114
U-251 = system: U-251
SNB-78 = system: SNB-78
T47D = system: T47D
HOP-62 = system: HOP-62
OVCAR-4 = system: OVCAR-4
SK-OV-3 = system: SK-OV-3
HCT-116 = system: HCT-116
SF-295 = system: SF-295
OVCAR-8 = system: OVCAR-8
HL-60 = system: HL-60
SR = system: SR
HOP-18 = system: HOP-18
HCT-15 = system: HCT-15
Hs-578T = system: Hs-578T
MDA-MB-435 = system: MDA-MB-435
A498 = system: A498
PC-3 = system: PC-3
MCF7 = system: MCF7
SK-MEL-2 = system: SK-MEL-2
UACC-257 = system: UACC-257
SK-MEL-28 = system: SK-MEL-28
SF-268 = system: SF-268
NCI-H226 = system: NCI-H226
CAKI-1 = system: CAKI-1
RPMI-8226 = system: RPMI-8226
KM-20L2 = system: KM-20L2
KM12 = system: KM12
MDA-N = system: MDA-N
NCI-H460 = system: NCI-H460
NCI/ADR-RES = system: NCI/ADR-RES
NCI-H23 = system: NCI-H23
MDA-MB-231 = system: MDA-MB-231
LOX IMVI = system: LOX IMVI
RXF 393 = system: RXF 393
TK-10 = system: TK-10
COLO 205 = system: COLO 205
SF-539 = system: SF-539
Malme-3M = system: Malme-3M
HOP-92 = system: HOP-92
SW-620 = system: SW-620
K562 = system: K562
SK-MEL-5 = system: SK-MEL-5
LXFL 529 = system: LXFL 529
RXF 631 = system: RXF 631
EKVX = system: EKVX
CCRF-CEM = system: CCRF-CEM
HT-29 = system: HT-29
M19-MEL = system: M19-MEL
HCC 2998 = system: HCC 2998
DMS-273 = system: DMS-273

With `Cc1nc2ccc(NCCN(C)C)c3c(=O)c4ccccc4n1c23` the GI50 (DLD-1) was 2.74 µM (inactive), the GI50 (NCI-H522) was 1.52 µM (inactive) and the GI50 (786-0) was 1.68 µM (inactive). For the same molecule, the GI50 (IGROV-1) was 1.75 µM (inactive), the GI50 (OVCAR-5) was 4.9 µM (inactive) and the GI50 (SNB-75) was 3.5 µM (inactive). For the same molecule, the GI50 (OVCAR-3) was 5 µM (inactive), the GI50 (SN12C) was 2.31 µM (inactive) and the GI50 (DU-145) was 2.07 µM (inactive). The GI50 (UO-31) was 2.13 µM (inactive), the GI50 (A549) was 1.16 µM (inactive) and the GI50 (SNB-19) was 4.19 µM (inactive). For the same molecule, the GI50 (MOLT-4) was 0.348 µM (active), the GI50 (M14) was 4.03 µM (inactive) and the GI50 (ACHN) was 1.52 µM (inactive). The GI50 (BT-549) was 10.5 µM (inactive), the GI50 (UACC-62) was 5.02 µM (inactive) and the GI50 (DMS-114) was 5.52 µM (inactive). For the same molecule, the GI50 (U-251) was 2.22 µM (inactive), the GI50 (SNB-78) was 6.79 µM (inactive) and the GI50 (T47D) was 12.2 µM (inactive). The GI50 (HOP-62) was 1.51 µM (inactive), the GI50 (OVCAR-4) was 1.83 µM (inactive) and the GI50 (SK-OV-3) was 3.96 µM (inactive). The GI50 (HCT-116) was 0.851 µM (active), the GI50 (SF-295) was 1.84 µM (inactive) and the GI50 (OVCAR-8) was 0.914 µM (active). The GI50 (HL-60) was 3.37 µM (inactive), the GI50 (SR) was 0.439 µM (active) and the GI50 (HOP-18) was 3.2 µM (inactive). For the same molecule, the GI50 (HCT-15) was 1.25 µM, the GI50 (Hs-578T) was 2.55 µM (inactive) and the GI50 (MDA-MB-435) was 2.09 µM (inactive). The GI50 (A498) was 3.91 µM (inactive), the GI50 (PC-3) was 1.1 µM (active) and the GI50 (MCF7) was 3.3 µM (inactive). The GI50 (SK-MEL-2) was 5.47 µM (inactive), the GI50 (UACC-257) was 4.65 µM (inactive) and the GI50 (SK-MEL-28) was 8.22 µM (inactive). For the same molecule, the GI50 (SF-268) was 3.48 µM (inactive), the GI50 (NCI-H226) was 1.56 µM (inactive) and the GI50 (CAKI-1) was 2.76 µM (inactive). For the same molecule, the GI50 (RPMI-8226) was 2.04 µM (inactive), the GI50 (KM-20L2) was 1.99 µM (inactive) and the GI50 (KM12) was 2.21 µM (inactive). For the same molecule, the GI50 (MDA-N) was 1.66 µM (inactive), the GI50 (NCI-H460) was 0.736 µM (active) and the GI50 (NCI/ADR-RES) was 1.06 µM (active). The GI50 (NCI-H23) was 2.97 µM (inactive), the GI50 (MDA-MB-231) was 1.05 µM (active) and the GI50 (LOX IMVI) was 0.9 µM (active). The GI50 (RXF 393) was 10.5 µM (inactive), the GI50 (TK-10) was 4.08 µM (inactive) and the GI50 (COLO 205) was 1.17 µM (inactive). For the same molecule, the GI50 (SF-539) was 2.74 µM (inactive), the GI50 (Malme-3M) was 4.14 µM (inactive) and the GI50 (HOP-92) was 2.25 µM (inactive). The GI50 (SW-620) was 0.601 µM (active), the GI50 (K562) was 1.39 µM (inactive) and the GI50 (SK-MEL-5) was 2.21 µM (inactive). For the same molecule, the GI50 (LXFL 529) was 6.56 µM (inactive), the GI50 (RXF 631) was 1.74 µM (inactive) and the GI50 (EKVX) was 3.05 µM (inactive). For the same molecule, the GI50 (CCRF-CEM) was 1.22 µM (inactive), the GI50 (HT-29) was 1.02 µM (active) and the GI50 (M19-MEL) was 5.9 µM (inactive). For the same molecule, the GI50 (HCC 2998) was 2.96 µM (inactive).
With `O=[N+]([O-])c1cccc(/C=N\NS(=O)(=O)c2ccc(Cl)cc2)c1O` the GI50 (DLD-1) was 55.5 µM (inactive), the GI50 (NCI-H522) was 31.8 µM (inactive) and the GI50 (786-0) was > 100 µM (inactive). The GI50 (IGROV-1) was 49.4 µM (inactive), the GI50 (OVCAR-5) was > 100 µM (inactive) and the GI50 (SNB-75) was > 100 µM (inactive). The GI50 (OVCAR-3) was 65.8 µM (inactive), the GI50 (SN12C) was > 100 µM (inactive) and the GI50 (UO-31) was 67.3 µM (inactive). The GI50 (A549) was > 100 µM (inactive), the GI50 (SNB-19) was > 100 µM (inactive) and the GI50 (MOLT-4) was 47.5 µM (inactive). The GI50 (M14) was 90.8 µM (inactive), the GI50 (ACHN) was 98.6 µM (inactive) and the GI50 (UACC-62) was 49.7 µM (inactive). The GI50 (U-251) was 55.5 µM (inactive), the GI50 (SNB-78) was > 100 µM (inactive) and the GI50 (HOP-62) was > 100 µM (inactive). For the same molecule, the GI50 (OVCAR-4) was > 100 µM (inactive), the GI50 (SK-OV-3) was > 100 µM (inactive) and the GI50 (DMS-273) was > 100 µM (inactive). The GI50 (HCT-116) was 50.4 µM (inactive), the GI50 (SF-295) was > 100 µM (inactive) and the GI50 (OVCAR-8) was 79.4 µM (inactive). For the same molecule, the GI50 (HL-60) was 46.9 µM (inactive), the GI50 (SR) was 18.7 µM (inactive) and the GI50 (HOP-18) was 37.1 µM (inactive). The GI50 (HCT-15) was 52.5 µM, the GI50 (A498) was > 100 µM (inactive) and the GI50 (SK-MEL-2) was 76.6 µM (inactive). For the same molecule, the GI50 (UACC-257) was > 100 µM (inactive), the GI50 (SK-MEL-28) was 46.9 µM (inactive) and the GI50 (SF-268) was > 100 µM (inactive). The GI50 (CAKI-1) was > 100 µM (inactive), the GI50 (RPMI-8226) was 55.5 µM (inactive) and the GI50 (KM-20L2) was > 100 µM (inactive). The GI50 (KM12) was > 100 µM (inactive), the GI50 (NCI-H460) was 82.8 µM (inactive) and the GI50 (NCI-H23) was 44.3 µM (inactive). For the same molecule, the GI50 (LOX IMVI) was > 100 µM (inactive), the GI50 (RXF 393) was 37.8 µM (inactive) and the GI50 (TK-10) was > 100 µM (inactive). For the same molecule, the GI50 (COLO 205) was 69.8 µM (inactive), the GI50 (SF-539) was 54.2 µM (inactive) and the GI50 (Malme-3M) was > 100 µM (inactive). The GI50 (HOP-92) was 42.6 µM (inactive), the GI50 (SW-620) was > 100 µM (inactive) and the GI50 (K562) was 60.1 µM (inactive). For the same molecule, the GI50 (SK-MEL-5) was 73.1 µM (inactive), the GI50 (LXFL 529) was 83.6 µM (inactive) and the GI50 (RXF 631) was > 100 µM (inactive). The GI50 (EKVX) was > 100 µM (inactive), the GI50 (CCRF-CEM) was 31.7 µM (inactive) and the GI50 (HT-29) was > 100 µM (inactive). The GI50 (M19-MEL) was > 100 µM (inactive) and the GI50 (HCC 2998) was > 100 µM (inactive).
